Target: MEK1 (Homo sapiens (Human), UniProt Q02750)
Test: KINOMEscan competition binding assay (Kd)
Conditions: read-out: Kd Values Against MEK Kinases Isoforms: MEK1
Description: (§1) KINOMEscan™ is based on a competition binding assay that quantitatively measures the ability of a test compound of the invention to compete with an immobilized, active-site directed ligand. The Kinase assay is performed by combining three components: DNA-tagged kinase; immobilized ligand; and a test compound. The ability of the test compound to compete with the immobilized ligand is measured via quantitative PCR of the DNA tag.
(§2) For most assays, kinase-tagged T7 phage strains were prepared in an E. coli host derived from the BL21 strain. E. coli were grown to log-phase and infected with T7 phage and incubated with shaking at 32° C. until lysis. The lysates were centrifuged and filtered to remove cell debris. The remaining kinases were produced in HEK-293 cells and subsequently tagged with DNA for qPCR detection. Streptavidin-coated magnetic beads were treated with biotinylated small molecule ligands for 30 minutes at room temperature to generate affinity resins for kinase assays. The liganded beads were blocked with excess biotin and washed with blocking buffer (SeaBlock (Pierce), 1% BSA, 0.05% Tween 20, 1 mM DTT) to remove unbound ligand and to reduce nonspecific binding. […] All reactions were performed in polystyrene 96-well plates in a final volume of 0.135 ml. […] The kinase concentration in the eluates was measured by qPCR.

Row | Kd | SMILES
1 | 5 to 99 nM | Nc1ncnc2c1c(-c1ccc(Oc3ccccc3)cc1)nn2C[C@H]1SSC[C@H]1O [46 B.]

Target: MEK5 (Homo sapiens (Human), UniProt Q13163)
Sequence (Q13163 whole entry): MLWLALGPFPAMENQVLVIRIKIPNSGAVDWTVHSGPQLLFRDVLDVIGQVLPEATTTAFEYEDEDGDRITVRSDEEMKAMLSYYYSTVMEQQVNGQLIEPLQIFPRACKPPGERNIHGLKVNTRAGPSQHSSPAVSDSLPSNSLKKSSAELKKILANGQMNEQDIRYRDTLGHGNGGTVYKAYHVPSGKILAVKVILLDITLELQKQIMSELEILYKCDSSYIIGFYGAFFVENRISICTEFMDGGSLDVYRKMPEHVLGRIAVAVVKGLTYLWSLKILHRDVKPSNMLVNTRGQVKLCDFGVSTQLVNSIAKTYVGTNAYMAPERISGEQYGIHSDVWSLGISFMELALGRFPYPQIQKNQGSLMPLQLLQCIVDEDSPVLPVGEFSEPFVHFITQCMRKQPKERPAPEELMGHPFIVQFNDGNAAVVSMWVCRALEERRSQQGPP
Test: KINOMEscan competition binding assay (Kd)
Conditions: Table 9, read-out: Kd Values Against Representative MEK5 Kinase: MEK5
Description: as §1, §2

Row | Kd | SMILES
2 | < 5 nM | Nc1ncnc2c1c(-c1ccc(Oc3ccccc3)cc1)nn2C[C@@H]1SSC[C@H]1O [43 A.]

Same assay, conditions: Table 12, read-out: Kd Values Against MEK Kinases Isoforms: MEK5

Row | Kd | SMILES
3 | < 5 nM | Nc1ncnc2c1c(-c1ccc(Oc3ccccc3)cc1)nn2C[C@H]1SSC[C@H]1O [46 B.]

Target: mTOR (Homo sapiens (Human), UniProt P42345)
Test: KINOMEscan competition binding assay (Kd)
Conditions: read-out: Kd Values Against mTOR Kinase: mTOR
Description: as §1, §2

Row | Kd | SMILES
4 | 1000 to 10000 nM | Nc1ncnc2c1c(-c1ccc(Oc3ccccc3)cc1)nn2C[C@@H]1SSC[C@H]1O [43 A.]
5 | 100 to 999 nM | Nc1ncnc2c1c(-c1ccc(Oc3ccccc3)cc1)nn2C[C@H]1SSC[C@H]1O [46 B.]

Target: ARAF (Homo sapiens (Human), UniProt P10398)
Sequence (P10398 whole entry): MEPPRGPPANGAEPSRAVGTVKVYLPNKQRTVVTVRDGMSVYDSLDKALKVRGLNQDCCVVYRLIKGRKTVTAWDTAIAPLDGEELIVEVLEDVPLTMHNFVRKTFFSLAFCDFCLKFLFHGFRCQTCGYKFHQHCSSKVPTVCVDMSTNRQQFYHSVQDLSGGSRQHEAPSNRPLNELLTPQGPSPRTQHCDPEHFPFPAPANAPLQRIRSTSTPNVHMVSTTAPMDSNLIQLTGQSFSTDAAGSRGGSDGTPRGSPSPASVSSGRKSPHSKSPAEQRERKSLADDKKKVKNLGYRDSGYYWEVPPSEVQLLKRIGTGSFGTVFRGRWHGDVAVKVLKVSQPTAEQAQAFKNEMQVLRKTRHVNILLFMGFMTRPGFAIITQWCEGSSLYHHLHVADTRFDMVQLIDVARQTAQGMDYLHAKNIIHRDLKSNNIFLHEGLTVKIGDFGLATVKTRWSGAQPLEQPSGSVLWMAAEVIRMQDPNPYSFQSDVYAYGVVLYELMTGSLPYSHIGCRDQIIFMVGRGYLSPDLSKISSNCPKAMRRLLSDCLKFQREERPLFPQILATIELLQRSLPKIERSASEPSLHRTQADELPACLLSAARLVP
Test: Radioisotope filter binding assay
Assay type: biochemical
Conditions: read-out: IC50 Activity Levels Against MAPK Pathway Kinases: ARAF
Description: (§3) 3. Radioisotope Filter Binding Assay:
(§4) In this assay format, it directly detects the true product without the use of modified substrates or coupling enzymes (Uitdehaag, J. C., et al. Br. J. Pharmacol. 2012, 166, 858-876; Hastie, C. J., et al. Nat. Protoc. 2006, 1, 968-971) according to equation 1. Substrate+[γ−^33P]−ATP→^33P-Substrate+ADP eq 1
(§5) The protocol calls for test compound of the invention to be incubated with kinase, substrate, cofactors, and radio-isotope-labeled ATP (^33P-gamma-ATP). The reaction mixtures are then spotted onto filter papers which bind the radioisotope labeled catalytic product. Unreacted phosphate is removed via washing. The reagents used include base reaction buffer; 20 mM Hepes (pH 7.5), 10 mM MgCl2, 1 mM EGTA, 0.02% Brij35, 0.02 mg/ml BSA, 0.1 mM Na3VO4, 2 mM DTT, 1% DMSO. The reaction procedure include the following steps: (1) prepare indicated substrate in freshly prepared base reaction buffer, (2) deliver any required cofactors to the substrate solution above, (3) deliver indicated kinase into the substrate solution and gently mix, (4) deliver compounds in DMSO into the kinase reaction mixture by Acoustic technology (Echo550; nanoliter range), incubate for 20 minutes at room temperature, (5) deliver ^33P-ATP (specific activity 10 μCi/μL) into the reaction mixture to initiate the reaction, (6) incubate kinase reaction for 2 hours at room temperature, (7) reactions are spotted onto P81 ion exchange paper, (8) detect kinase activity by filter-binding method.

Row | IC50 | SMILES
6 | 100 to 999 nM | Nc1ncnc2c1c(-c1ccc(Oc3ccccc3)cc1)nn2C[C@@H]1SSC[C@H]1O [43 A.]
7 | 100 to 999 nM | Nc1ncnc2c1c(-c1ccc(Oc3ccccc3)cc1)nn2C[C@H]1SSC[C@H]1O [46 B.]

Target: BLK (Homo sapiens (Human), UniProt P51451)
Test: Radioisotope filter binding assay
Assay type: biochemical
Conditions: read-out: IC50 Activity Levels Against SRC Family Kinases: BLK
Description: as §3, §4, §5

Row | IC50 | SMILES
8 | < 5 nM | Nc1ncnc2c1c(-c1ccc(Oc3ccccc3)cc1)nn2C[C@@H]1SSC[C@H]1O [43 A.]
9 | < 5 nM | Nc1ncnc2c1c(-c1ccc(Oc3ccccc3)cc1)nn2C[C@H]1SSC[C@H]1O [46 B.]

Target: BRK (Homo sapiens (Human), UniProt Q13882)
Test: Radioisotope filter binding assay
Assay type: biochemical
Conditions: read-out: IC50 Activity Levels Against FRK Family Kinases: BRK
Description: as §3, §4, §5

Row | IC50 | SMILES
10 | 5 to 99 nM | Nc1ncnc2c1c(-c1ccc(Oc3ccccc3)cc1)nn2C[C@@H]1SSC[C@H]1O [43 A.]
11 | 5 to 99 nM | Nc1ncnc2c1c(-c1ccc(Oc3ccccc3)cc1)nn2C[C@H]1SSC[C@H]1O [46 B.]

Target: BTK (Homo sapiens (Human), UniProt Q06187)
Sequence (Q06187 whole entry): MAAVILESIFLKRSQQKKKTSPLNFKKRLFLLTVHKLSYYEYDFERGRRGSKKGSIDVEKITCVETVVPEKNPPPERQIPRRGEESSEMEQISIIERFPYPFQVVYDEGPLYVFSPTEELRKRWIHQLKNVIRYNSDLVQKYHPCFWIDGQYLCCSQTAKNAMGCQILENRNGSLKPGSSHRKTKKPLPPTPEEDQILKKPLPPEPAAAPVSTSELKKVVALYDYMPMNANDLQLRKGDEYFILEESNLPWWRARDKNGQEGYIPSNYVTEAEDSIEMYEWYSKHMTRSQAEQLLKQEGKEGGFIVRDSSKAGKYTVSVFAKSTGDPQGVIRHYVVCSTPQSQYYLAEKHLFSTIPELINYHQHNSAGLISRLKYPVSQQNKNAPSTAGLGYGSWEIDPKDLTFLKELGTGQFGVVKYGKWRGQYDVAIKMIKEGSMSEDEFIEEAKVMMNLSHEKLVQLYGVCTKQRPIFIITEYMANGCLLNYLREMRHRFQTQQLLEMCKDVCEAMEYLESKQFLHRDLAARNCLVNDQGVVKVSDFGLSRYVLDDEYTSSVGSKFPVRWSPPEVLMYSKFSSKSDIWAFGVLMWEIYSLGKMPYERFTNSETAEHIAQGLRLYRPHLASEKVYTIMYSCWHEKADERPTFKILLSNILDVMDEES
Test: Radioisotope filter binding assay
Assay type: biochemical
Conditions: read-out: IC50 Activity Levels Against Representative TEC Family Kinases: BTK
Description: as §3, §4, §5

Row | IC50 | SMILES
12 | 5 to 99 nM | Nc1ncnc2c1c(-c1ccc(Oc3ccccc3)cc1)nn2C[C@@H]1SSC[C@H]1O [43 A.]
13 | 5 to 99 nM | Nc1ncnc2c1c(-c1ccc(Oc3ccccc3)cc1)nn2C[C@H]1SSC[C@H]1O [46 B.]

Target: CRAP (Homo sapiens (Human), UniProt P04049)
Test: Radioisotope filter binding assay
Assay type: biochemical
Conditions: read-out: IC50 Activity Levels Against MAPK Pathway Kinases: CRAP
Description: as §3, §4, §5

Row | IC50 | SMILES
14 | 1000 to 10000 nM | Nc1ncnc2c1c(-c1ccc(Oc3ccccc3)cc1)nn2C[C@@H]1SSC[C@H]1O [43 A.]
15 | 1000 to 10000 nM | Nc1ncnc2c1c(-c1ccc(Oc3ccccc3)cc1)nn2C[C@H]1SSC[C@H]1O [46 B.]

Target: FGR (Homo sapiens (Human), UniProt P09769)
Sequence (P09769 whole entry): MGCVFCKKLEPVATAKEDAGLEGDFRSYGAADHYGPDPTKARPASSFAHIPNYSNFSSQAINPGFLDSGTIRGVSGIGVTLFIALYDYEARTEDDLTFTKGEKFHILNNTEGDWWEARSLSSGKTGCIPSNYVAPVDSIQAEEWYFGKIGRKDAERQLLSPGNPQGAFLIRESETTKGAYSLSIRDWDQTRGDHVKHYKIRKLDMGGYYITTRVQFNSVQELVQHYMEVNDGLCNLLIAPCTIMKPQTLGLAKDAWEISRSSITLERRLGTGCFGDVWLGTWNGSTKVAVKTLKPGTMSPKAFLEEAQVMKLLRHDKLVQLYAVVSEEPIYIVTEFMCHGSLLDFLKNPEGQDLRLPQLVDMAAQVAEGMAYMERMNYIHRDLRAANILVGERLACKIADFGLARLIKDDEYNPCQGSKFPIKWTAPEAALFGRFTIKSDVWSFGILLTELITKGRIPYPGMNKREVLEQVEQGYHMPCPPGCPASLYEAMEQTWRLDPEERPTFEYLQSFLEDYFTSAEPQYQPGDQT
Test: Radioisotope filter binding assay
Assay type: biochemical
Conditions: read-out: IC50 Activity Levels Against SRC Family Kinases: FGR
Description: as §3, §4, §5

Row | IC50 | SMILES
16 | < 5 nM | Nc1ncnc2c1c(-c1ccc(Oc3ccccc3)cc1)nn2C[C@@H]1SSC[C@H]1O [43 A.]
17 | < 5 nM | Nc1ncnc2c1c(-c1ccc(Oc3ccccc3)cc1)nn2C[C@H]1SSC[C@H]1O [46 B.]

Target: FLT3 (Homo sapiens (Human), UniProt P36888)
Test: Radioisotope filter binding assay
Assay type: biochemical
Conditions: read-out: IC50 Activity Levels Against Type III NRT Kinases: FLT3
Description: as §3, §4, §5

Row | IC50 | SMILES
18 | 5 to 99 nM | Nc1ncnc2c1c(-c1ccc(Oc3ccccc3)cc1)nn2C[C@@H]1SSC[C@H]1O [43 A.]
19 | 5 to 99 nM | Nc1ncnc2c1c(-c1ccc(Oc3ccccc3)cc1)nn2C[C@H]1SSC[C@H]1O [46 B.]

Target: FLT3-ITD
Test: Radioisotope filter binding assay
Assay type: biochemical
Conditions: read-out: IC50 Activity Levels Against Type III NRT Kinases: FLT3-ITD
Description: as §3, §4, §5

Row | IC50 | SMILES
20 | 100 to 999 nM | Nc1ncnc2c1c(-c1ccc(Oc3ccccc3)cc1)nn2C[C@@H]1SSC[C@H]1O [43 A.]
21 | 100 to 999 nM | Nc1ncnc2c1c(-c1ccc(Oc3ccccc3)cc1)nn2C[C@H]1SSC[C@H]1O [46 B.]

Target: FYN (Homo sapiens (Human), UniProt P06241)
Sequence (P06241 whole entry): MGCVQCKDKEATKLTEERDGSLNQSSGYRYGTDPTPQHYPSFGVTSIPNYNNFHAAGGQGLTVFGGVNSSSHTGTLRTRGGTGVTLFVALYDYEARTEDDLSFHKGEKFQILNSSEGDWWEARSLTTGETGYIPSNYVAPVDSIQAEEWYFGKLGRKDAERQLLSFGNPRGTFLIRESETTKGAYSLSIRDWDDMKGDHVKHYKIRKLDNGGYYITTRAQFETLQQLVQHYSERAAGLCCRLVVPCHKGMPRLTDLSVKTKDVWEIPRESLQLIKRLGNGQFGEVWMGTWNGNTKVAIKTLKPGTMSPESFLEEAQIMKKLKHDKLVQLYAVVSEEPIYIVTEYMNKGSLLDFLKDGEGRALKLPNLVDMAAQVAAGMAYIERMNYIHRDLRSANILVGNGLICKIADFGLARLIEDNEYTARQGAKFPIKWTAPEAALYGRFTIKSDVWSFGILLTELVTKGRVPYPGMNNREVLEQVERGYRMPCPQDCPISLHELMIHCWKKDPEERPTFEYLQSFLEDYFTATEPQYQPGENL
Test: Radioisotope filter binding assay
Assay type: biochemical
Conditions: read-out: IC50 Activity Levels Against SRC Family Kinases: FYN
Description: as §3, §4, §5

Row | IC50 | SMILES
22 | < 5 nM | Nc1ncnc2c1c(-c1ccc(Oc3ccccc3)cc1)nn2C[C@@H]1SSC[C@H]1O [43 A.]
23 | < 5 nM | Nc1ncnc2c1c(-c1ccc(Oc3ccccc3)cc1)nn2C[C@H]1SSC[C@H]1O [46 B.]

Target: FYN-Y531F (Homo sapiens (Human), UniProt P06241, Y531F)
Test: Radioisotope filter binding assay
Assay type: biochemical
Conditions: read-out: IC50 Activity Levels Against FYN Mutant: FYN-Y531F
Description: as §3, §4, §5

Row | IC50 | SMILES
24 | 5 to 99 nM | Nc1ncnc2c1c(-c1ccc(Oc3ccccc3)cc1)nn2C[C@@H]1SSC[C@H]1O [43 A.]
25 | 5 to 99 nM | Nc1ncnc2c1c(-c1ccc(Oc3ccccc3)cc1)nn2C[C@H]1SSC[C@H]1O [46 B.]

Target: HCK (Homo sapiens (Human), UniProt P08631)
Test: Radioisotope filter binding assay
Assay type: biochemical
Conditions: read-out: IC50 Activity Levels Against SRC Family Kinases: HCK
Description: as §3, §4, §5

Row | IC50 | SMILES
26 | < 5 nM | Nc1ncnc2c1c(-c1ccc(Oc3ccccc3)cc1)nn2C[C@@H]1SSC[C@H]1O [43 A.]
27 | 5 to 99 nM | Nc1ncnc2c1c(-c1ccc(Oc3ccccc3)cc1)nn2C[C@H]1SSC[C@H]1O [46 B.]

Target: LCK (Homo sapiens (Human), UniProt P06239)
Sequence (P06239 whole entry): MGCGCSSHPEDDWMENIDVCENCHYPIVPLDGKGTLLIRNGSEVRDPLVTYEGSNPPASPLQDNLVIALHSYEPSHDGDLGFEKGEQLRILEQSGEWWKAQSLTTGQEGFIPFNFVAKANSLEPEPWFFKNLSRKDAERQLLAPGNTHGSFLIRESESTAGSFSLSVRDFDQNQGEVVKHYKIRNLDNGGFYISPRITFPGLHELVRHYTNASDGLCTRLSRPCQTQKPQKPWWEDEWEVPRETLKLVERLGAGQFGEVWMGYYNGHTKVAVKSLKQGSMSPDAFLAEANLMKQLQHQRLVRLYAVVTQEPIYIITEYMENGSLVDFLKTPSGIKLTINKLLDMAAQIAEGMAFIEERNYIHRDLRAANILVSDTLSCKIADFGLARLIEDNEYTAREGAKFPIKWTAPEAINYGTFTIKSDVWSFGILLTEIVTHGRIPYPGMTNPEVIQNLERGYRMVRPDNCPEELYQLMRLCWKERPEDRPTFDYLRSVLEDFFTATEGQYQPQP
Test: Radioisotope filter binding assay
Assay type: biochemical
Conditions: read-out: IC50 Activity Levels Against SRC Family Kinases: LCK
Description: as §3, §4, §5

Row | IC50 | SMILES
28 | < 5 nM | Nc1ncnc2c1c(-c1ccc(Oc3ccccc3)cc1)nn2C[C@@H]1SSC[C@H]1O [43 A.]
29 | < 5 nM | Nc1ncnc2c1c(-c1ccc(Oc3ccccc3)cc1)nn2C[C@H]1SSC[C@H]1O [46 B.]

Target: LYN (Homo sapiens (Human), UniProt P07948)
Sequence (P07948 whole entry): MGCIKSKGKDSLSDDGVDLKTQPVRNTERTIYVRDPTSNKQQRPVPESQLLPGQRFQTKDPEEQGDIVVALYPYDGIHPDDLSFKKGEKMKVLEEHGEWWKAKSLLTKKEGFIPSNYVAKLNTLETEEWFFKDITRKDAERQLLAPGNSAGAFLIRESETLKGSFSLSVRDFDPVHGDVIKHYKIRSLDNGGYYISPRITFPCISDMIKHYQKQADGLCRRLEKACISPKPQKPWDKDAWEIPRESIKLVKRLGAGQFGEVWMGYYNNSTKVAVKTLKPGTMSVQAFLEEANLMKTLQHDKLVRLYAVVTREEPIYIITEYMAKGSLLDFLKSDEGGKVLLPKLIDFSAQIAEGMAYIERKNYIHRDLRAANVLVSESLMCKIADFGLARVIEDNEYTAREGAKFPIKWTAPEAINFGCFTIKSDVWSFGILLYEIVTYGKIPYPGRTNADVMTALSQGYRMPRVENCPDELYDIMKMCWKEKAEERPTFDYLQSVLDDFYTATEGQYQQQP
Test: Radioisotope filter binding assay
Assay type: biochemical
Conditions: read-out: IC50 Activity Levels Against SRC Family Kinases: LYN
Description: as §3, §4, §5

Row | IC50 | SMILES
30 | 5 to 99 nM | Nc1ncnc2c1c(-c1ccc(Oc3ccccc3)cc1)nn2C[C@@H]1SSC[C@H]1O [43 A.]
31 | 5 to 99 nM | Nc1ncnc2c1c(-c1ccc(Oc3ccccc3)cc1)nn2C[C@H]1SSC[C@H]1O [46 B.]

Target: SRC (Homo sapiens (Human), UniProt P12931)
Sequence (P12931 whole entry, looked up): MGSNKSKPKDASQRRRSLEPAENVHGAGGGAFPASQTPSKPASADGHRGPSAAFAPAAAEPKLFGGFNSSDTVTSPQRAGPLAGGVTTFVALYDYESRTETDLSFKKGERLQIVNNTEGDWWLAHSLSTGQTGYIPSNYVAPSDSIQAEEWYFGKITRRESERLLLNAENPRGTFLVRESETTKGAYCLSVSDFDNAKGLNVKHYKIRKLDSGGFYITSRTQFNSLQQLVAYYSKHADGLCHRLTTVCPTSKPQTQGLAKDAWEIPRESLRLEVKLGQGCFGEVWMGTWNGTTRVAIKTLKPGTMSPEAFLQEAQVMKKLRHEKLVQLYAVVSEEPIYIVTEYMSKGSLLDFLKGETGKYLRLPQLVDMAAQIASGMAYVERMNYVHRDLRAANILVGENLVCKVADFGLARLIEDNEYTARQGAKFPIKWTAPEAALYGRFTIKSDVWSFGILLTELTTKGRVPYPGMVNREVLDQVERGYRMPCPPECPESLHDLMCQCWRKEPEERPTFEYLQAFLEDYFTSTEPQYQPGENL
Test: Radioisotope filter binding assay
Assay type: biochemical
Conditions: read-out: IC50 Activity Levels Against SRC Family Kinases: SRC
Description: as §3, §4, §5

Row | IC50 | SMILES
32 | 100 to 999 nM | Nc1ncnc2c1c(-c1ccc(Oc3ccccc3)cc1)nn2C[C@@H]1SSC[C@H]1O [43 A.]
33 | 5 to 99 nM | Nc1ncnc2c1c(-c1ccc(Oc3ccccc3)cc1)nn2C[C@H]1SSC[C@H]1O [46 B.]

Target: T1, YES1 (Homo sapiens (Human), UniProt P07947)
T1 sequence (P07947 whole entry): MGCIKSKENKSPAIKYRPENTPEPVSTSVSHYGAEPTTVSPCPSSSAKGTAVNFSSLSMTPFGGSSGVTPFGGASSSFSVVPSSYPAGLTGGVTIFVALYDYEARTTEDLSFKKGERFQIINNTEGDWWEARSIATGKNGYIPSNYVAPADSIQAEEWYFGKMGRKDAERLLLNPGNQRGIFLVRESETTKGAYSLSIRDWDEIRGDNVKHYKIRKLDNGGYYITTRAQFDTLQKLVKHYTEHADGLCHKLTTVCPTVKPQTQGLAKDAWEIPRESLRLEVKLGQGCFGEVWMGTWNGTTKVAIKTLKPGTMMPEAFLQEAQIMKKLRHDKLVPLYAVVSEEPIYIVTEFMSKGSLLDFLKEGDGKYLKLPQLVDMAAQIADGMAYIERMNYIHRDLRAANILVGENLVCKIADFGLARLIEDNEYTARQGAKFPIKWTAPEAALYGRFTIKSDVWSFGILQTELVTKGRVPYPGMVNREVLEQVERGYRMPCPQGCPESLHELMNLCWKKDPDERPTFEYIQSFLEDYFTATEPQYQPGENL
Test: Radioisotope filter binding assay
Assay type: biochemical
Conditions: read-out: IC50 Activity Levels Against SRC Family Kinases: YES1
Description: as §3, §4, §5

Row | IC50 | SMILES
34 | < 5 nM | Nc1ncnc2c1c(-c1ccc(Oc3ccccc3)cc1)nn2C[C@@H]1SSC[C@H]1O [43 A.]
35 | < 5 nM | Nc1ncnc2c1c(-c1ccc(Oc3ccccc3)cc1)nn2C[C@H]1SSC[C@H]1O [46 B.]

Target: T1, YES1
Test: Kinase binding assay CaPBA
Conditions: read-out: IC50 Activity Levels Against FYN isoforms, YES1 and MEK5: YES1
From the text: 4. Kinase Binding Assay CaPBA:

Row | IC50 | SMILES
36 | < 5 nM | Nc1ncnc2c1c(-c1ccc(Oc3ccccc3)cc1)nn2C[C@@H]1SSC[C@H]1O [43 A.]
37 | < 5 nM | Nc1ncnc2c1c(-c1ccc(Oc3ccccc3)cc1)nn2C[C@H]1SSC[C@H]1O [46 B.]

Source: US10844038B2, “1,2-dithiolane compounds useful in neuroprotection, autoimmune and cancer diseases and conditions” (SABILA BIOSCIENCES LLC, priority 2016, dated 2020)
